Measured values reported in PMC6717395 (Drug Design, Development and Therapy, 2019).

Tests used:
ABTS antioxidant assay = conditions: for ABTS percent inhibition (mean ± S.E.M): n=3; for ABTS IC50: ABTS radical scavenging
DPPH antioxidant assay = conditions: for DPPH % inhibition (mean ± S.E.M): n=3; for DPPH IC50: DPPH radical scavenging
[1] = target: acetylcholinesterase (AChE) (Homo sapiens, UniProt P22303); experiment: biochemical
[2] = target: butyrylcholinesterase (BChE) (Homo sapiens, UniProt P06276); experiment: Anticholinesterase assay; assay type: biochemical
[3] = read-out: Percent BChE (mean ± SEM) inhibition

Chain of butyrylcholinesterase (BChE) (P06276 29-602, species assumed): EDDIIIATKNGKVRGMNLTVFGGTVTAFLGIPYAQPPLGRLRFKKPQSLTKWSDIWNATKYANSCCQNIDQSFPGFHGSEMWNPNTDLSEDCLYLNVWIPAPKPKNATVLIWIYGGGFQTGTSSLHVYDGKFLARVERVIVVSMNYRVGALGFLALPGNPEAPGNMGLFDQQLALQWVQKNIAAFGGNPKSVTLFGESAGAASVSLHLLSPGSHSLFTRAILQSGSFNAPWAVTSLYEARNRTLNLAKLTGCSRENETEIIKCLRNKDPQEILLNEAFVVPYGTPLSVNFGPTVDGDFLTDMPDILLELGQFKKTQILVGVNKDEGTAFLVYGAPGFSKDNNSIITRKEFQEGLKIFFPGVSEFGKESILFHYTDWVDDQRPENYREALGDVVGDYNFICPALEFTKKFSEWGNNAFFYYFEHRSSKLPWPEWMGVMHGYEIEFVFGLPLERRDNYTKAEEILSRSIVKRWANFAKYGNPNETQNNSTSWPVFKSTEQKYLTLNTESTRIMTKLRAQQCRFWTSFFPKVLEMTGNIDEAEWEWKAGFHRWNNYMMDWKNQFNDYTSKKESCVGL
Chain of acetylcholinesterase (AChE) (P22303 32-614, species assumed): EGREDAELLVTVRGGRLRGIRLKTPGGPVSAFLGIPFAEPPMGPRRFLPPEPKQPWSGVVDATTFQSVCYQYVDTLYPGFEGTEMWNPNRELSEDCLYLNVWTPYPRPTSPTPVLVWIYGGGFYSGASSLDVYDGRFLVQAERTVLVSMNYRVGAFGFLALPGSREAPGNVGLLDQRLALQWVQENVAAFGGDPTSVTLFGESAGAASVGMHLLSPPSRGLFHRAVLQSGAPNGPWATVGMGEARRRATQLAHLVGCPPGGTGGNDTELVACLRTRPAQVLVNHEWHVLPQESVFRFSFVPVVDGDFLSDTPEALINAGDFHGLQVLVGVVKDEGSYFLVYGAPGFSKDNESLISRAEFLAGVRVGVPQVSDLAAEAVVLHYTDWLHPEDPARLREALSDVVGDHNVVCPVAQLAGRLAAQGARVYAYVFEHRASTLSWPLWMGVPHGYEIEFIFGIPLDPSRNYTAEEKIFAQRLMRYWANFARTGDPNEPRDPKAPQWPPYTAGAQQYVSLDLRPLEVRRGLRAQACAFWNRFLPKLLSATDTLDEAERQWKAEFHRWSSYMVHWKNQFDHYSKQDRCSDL

Structure (SMILES)	ABTS percent inhibition (mean ± S.E.M) (ABTS antioxidant assay; 62.5 μg/mL)	ABTS percent inhibition (mean ± S.E.M) (ABTS antioxidant assay; 125 μg/mL)	ABTS percent inhibition (mean ± S.E.M) (ABTS antioxidant assay; 250 μg/mL)	ABTS percent inhibition (mean ± S.E.M) (ABTS antioxidant assay; 500 μg/mL)	ABTS percent inhibition (mean ± S.E.M) (ABTS antioxidant assay; 1000 μg/mL)	ABTS IC50 (ABTS antioxidant assay)	DPPH % inhibition (mean ± S.E.M) (DPPH antioxidant assay; 62.5 μg/mL)	DPPH % inhibition (mean ± S.E.M) (DPPH antioxidant assay; 125 μg/mL)	DPPH % inhibition (mean ± S.E.M) (DPPH antioxidant assay; 250 μg/mL)	DPPH % inhibition (mean ± S.E.M) (DPPH antioxidant assay; 500 μg/mL)	DPPH % inhibition (mean ± S.E.M) (DPPH antioxidant assay; 1000 μg/mL)	DPPH IC50 (DPPH antioxidant assay)	inhibition at 62.5 µg/mL [2, 3]	also measured
O=C1O[C@H]([C@@H](O)CO)C(O)=C1O [Ascorbic acid, reference compound]	55.51±1.09%	64.06±1.15%	77.64±3.06%	83.76±1.16%	93.41±0.73%	35 µg/mL	55.05±1.54%	65.30±2.05%	78.89±1.34%	87.21±0.75%	94.88±1.63%	35 µg/mL		
O=C(O)CCCCC(=O)O [Compound VIII, Hexanedioic acid]	41.70±1.06 %	50.02±1.11 %	62.19±0.90 %	70.10±1.20 %	80.23±1.37 %	125 µg/mL	41.17±1.97 %	51.10±2.39 %	63.13±2.17 %	72.84±1.87 %	81.64±2.76 %	118 µg/mL	40.6 ± 1.06%	IC50 [1]: 835 µM; inhibition at 62.5 µg/mL ([1]; read-out: Percent AChE (mean ± SEM) inhibition, 62.5 μg/mL, n=3): 41.7 ± 3.01%; inhibition at 125 µg/mL ([1]; read-out: Percent AChE (mean ± SEM) inhibition, 125 μg/mL, n=3): 50.3 ± 2.1%; inhibition at 250 µg/mL ([1]; read-out: Percent AChE (mean ± SEM) inhibition, 250 μg/mL, n=3): 62.1 ± 2.41%; inhibition at 500 µg/mL ([1]; read-out: Percent AChE (mean ± SEM) inhibition, 500 μg/mL, n=3): 71.2 ± 2.37%; inhibition at 1000 µg/mL ([1]; read-out: Percent AChE (mean ± SEM) inhibition, 1000 μg/mL, n=3): 79.6 ± 2.1%; IC50 [2]: 848 µM; inhibition at 125 µg/mL [2, 3]: 50.1 ± 2.16%; inhibition at 250 µg/mL [2, 3]: 61.2 ± 2.1%; inhibition at 500 µg/mL [2, 3]: 71.3 ± 1.1%; inhibition at 1000 µg/mL [2, 3]: 78.2 ± 1.31%
COc1ccc2c3c1O[C@H]1C[C@@H](O)C=C[C@@]31CCN(C)C2 [Galanthamine, reference compound]													53.5 ± 1.69%	
